Each structure is given as a SMILES string.

Data set [1] deals with T1, NaV1.7 (Homo sapiens, UniProt Q15858).
T1 construct: expressed in transfected cells; host or cells: HEK293 (tetracycline-inducible)
In words: Automated patch clamp (Qube 384), internal block of NaV1.7. It is filed as cell-based. The settings on record: IC50, compound in internal solution, HEK293 cells, read-out: Nav1.7 Intracellular Inhibition. Here is the method:
(§1) NaV1.7 was expressed in HEK293 cells upon induction with tetracycline. Cells were cultured in DMEM containing 10% dialyzed Fetal Bovine Serum (VWR, Radnor, Pa.), 1% Glutamax (VWR, Radnor, Pa.), 1% Penicillin-Streptomycin (VWR, Radnor, Pa.), 100 mg/L Hygromycin (Thermo Fisher Scientific, Waltham, Mass. and 5 mg/L Blasticidin (Alfa Aesar, Haverhill, Mass.). Cells were grown and maintained at 37° C. in a humidified environment containing 10% CO2 in air. Cells were detached from the culture flask for passage and harvested using 0.05% Trypsin-EDTA (Thermo Fisher Scientific, Waltham, Mass.). To induce NaV1.7, cells were induced with tetracycline (0.1-1 μg/mL, IBI Scientific, Peosta, Iowa) the day before recording.
Before experiments, cells were washed with DPBS (VWR, Radnor, Pa.), digested with Detachin (VWR Radnor, Pa.) and then triturated 10 times in CHO Serum-Free Media (VWR Radnor, Pa.) to resuspend the cells and to break apart cell aggregates. Cells were counted and the final concentration was set at 2-5 million cells per mL.
The intracellular solution contained the following: 140 mM CsF, 1 mM/5 mM EGTA/CsOH, 10 mM HEPES, 10 mM NaCl, adjusted to pH 7.3 with CsOH, and osmolality to 320 with OSM solution. The external solution contained the following: 145 mM NaCl, 4 mM KCl, 1 mM MgCl2, 2 mM CaCl2), 10 mM HEPES, 10 mM Glucose, adjusted to pH 7.4 with CsOH and osmolality to 305 with OSM solution. The OSM solution was a normal Ringer solution containing (in mM) NaCl 155, HEPES 10, sucrose, KCl 3.5, CaCl2) 1.5, MgCl2 1 adjusted to pH 7.4 with NaOH. All chemicals are from Sigma-Aldrich, St. Louis, Mo. In order to test the degree of internal block by test compounds, the compounds were dissolved in internal solution at the indicated test concentration. […] In order to test the degree of external block by test compounds the compounds were dissolved in external solution at the indicated test concentration.
Automated Patch Clamps were performed on Qube 384 (Sophion Bioscience, Woburn Mass.) with multihole Qchips at a temperature setting of 22 degrees. The whole cells configuration was formed with default Qube seal and break-in parameter. The membrane potential was held at −100 mV before the voltage protocol began. Two voltage protocols were followed.
Step 1: Cells were held at −100 mV with a depolarized pulse to −20 mV for 10 ms, the interval was set at 5 s. Currents were corrected by default leak subtraction from every pulse. The duration was set at 5 mins.
Step 2: Cells were held at −100 mV with a depolarized pulse to −20 mV for 10 ms. The frequency was 5 Hz. Currents were corrected by leak subtraction calculated before step 2. The duration was set at 4 mins.
After Step 2, the Qchip was removed from the recording chamber. The internal solution was changed with solutions containing test compounds. Qchips were held at −100 mV without pulsing after being replaced in the recording chamber. The total solution switching time was 8 minutes. After the internal solution exchange, Cells were recorded and step 2 for repeated for 10 minutes.
Data analysis was performed by Sophion Analyzer. Cells were filtered with minimum 50 MOhm seal resistance and minimum 5 nA starting current. The rundown of the currents was corrected with control cells (Non-Drug). The remaining was calculated by averaging last 3 points in the end of experiments. The base line was calculated as the average of last 3 points of Step 2.
IC50 curves were plotted with DR-plots/Hill function (a dose-response plot with a Hill fit).
Representative examples of the invention were tested for intracellular inhibition of NaV 1.7 in the automated patch clamp assay. Activity Range is reported as IC50: “++++” (<0.3 μM), “+++” (0.3-1 μM), “++” (1-3 μM) or “+” (3-10 μM).

Data set [2] concerns the target T1, NaV1.7. In words: Manual patch clamp, internal block of NaV1.7 current. As to conditions: compound in internal solution, HEK293 cells, read-out: Nav1.7 Intracellular Inhibition; for inhibition at 3 µM: % inhibition at 3 μM test concentration; for inhibition at 10 µM: % inhibition at 10 μM test concentration. It is filed as cell-based. Here is the method: Representative compounds of the invention were synthesized according to the described methods and tested for the ability to inhibit voltage-gated sodium channels.
as §1, with “recording and plated onto 24-well plates. Cells were washed with DPBS (VWR, Radnor, Pa.), trypsinized and then triturated five times in 10 mL of growth media to break apart cell aggregates. For one 24-well plate, 2 mL of cell suspension was mixed with 23 mL of fresh growth media and 0.1-1 μg/mL tetracycline added. 1 ml of mixed media with cells was then added to each well of a 24-well plate, with a 12 mm coverslip already placed in the bottom of the well. Cells were then incubated in 37° C. and 10% CO2 overnight.” for “recording.”
The intracellular solution contained the following (in mM) CsCl 135, NaCl 10, EGTA 10, HEPES 10, MgCl2 2, adjusted to pH 7.2 with CsOH. The external solution was a normal Ringer solution containing (in mM) NaCl 155, HEPES 10, glucose 10, KCl 3.5, CaCl2 1.5, MgCl2 1 adjusted to pH 7.4 with NaOH. CsCl is from Alfa Aesar, Haverhill, Mass. All other chemicals are from Sigma-Aldrich, St. Louis, Mo. In order to test the degree of internal block by test compounds the compounds were dissolved in internal solution at the indicated test concentration. […] In order to test the degree of external block by test compounds the compounds were dissolved in external solution at the indicated test concentration.
18-24 hours after cells were induced with tetracycline, coverslips were placed into a chamber filled with Normal Ringer solution at room temperature and the chamber placed on a microscope. Pipettes were pulled from borosilicate glass on a P97 puller (Sutter Instrument, Novato, Calif.) and polished with a MF-830 Microforge (Narishige International USA, Inc., Amityville, N.Y.) to have a resistance of 1.5-2.5 MΩ when filled with CsCl internal solution at room temperature. Healthy cells (those that are round and translucent with no visible blemishes) were chosen for seal formation. A seal was formed between the pipette and the cell, and a brief pulse of suction was used to “break in” and establish the whole-cell configuration. The membrane potential was held at −100 mV before the voltage protocol began. Only cells with series resistance between 1.5-5 MΩ were retained for analysis. The voltage protocol was as follows: Cells were held at −100 mV for 12 ms followed by a hyperpolarizing step to −105 mV for 12 ms to monitor the leak. Cells were then stepped back to −100 mV for 40 ms. Cells were then depolarized to −20 mV for 10 ms and then returned to −100 mV for 26 ms.
Once the recording was started, the voltage protocol was run at 30 second intervals for 5 minutes to get a stable baseline. This was followed by four 30-second periods of 5 Hz stimulation of the same voltage protocol separated by 1 minute of rest which was then followed by 0.33 Hz stimulation after the last train. Currents were recorded using PatchMaster software with Heka EPC10 (HEKA Electronics, Lambrecht, Germany). Only cells with inward current amplitudes at −20 mV between 400 pA and 4 nA were accepted. In addition, cells having leak currents greater than 10% of their current amplitudes were discarded. […]

Data set [3] can be described thus: PAMPA membrane permeability assay. It is filed as in vitro ADME. As to conditions: permeability coefficient, pH 7.4 buffer, GIT lipid, 4 hours incubation. How it is done: The PAMPA assay (pION, Inc., Woburn Mass.) was used to determine the ability of compounds of the invention to cross an artificial lipid membrane by passive diffusion. Test compounds were dissolved in DMSO (10 mM) and diluted 200-fold in buffer (pION Inc., pH 7.4) to provide 50 uM stock solutions. Buffer (150 μL) was added to a UV blank plate and stock solutions (150 μL) were transferred to a UV reference plate. The blank and reference spectrum were read using a spectrophotometer. Stock solutions (200 μL) were added to the donor plate of the PAMPA sandwich plate and an accept plate painted with GIT lipid (pION Inc, 5) was placed on top. Buffer (200 μL) was added to the acceptor plate and the PAMPA sandwich plate was incubated for 4 hours. Aliquots (150 μL) from the acceptor plate were added to a UV plate and read as acceptor spectrum. Aliquots (150 μL) of the donor solutions were added to a UV analysis plate and read as donor spectrum. The permeability coefficient of test compounds was calculated using PAMPA Explorer™ software (version 3.5.0.4) based on the AUC of the reference plate, the donor plate, and the acceptor plate.
The PAMPA permeability results (10^−6 cm/s) of representative compounds are reported as “+” (<0.1 10^−6 cm/s), “++” (0.1-2.0 10^−6 cm/s), “+++” (2.0-10.010^−6 cm/s) or “++++” (>10.0 10^−6 cm/s).

T1 sequence (Q15858 whole entry): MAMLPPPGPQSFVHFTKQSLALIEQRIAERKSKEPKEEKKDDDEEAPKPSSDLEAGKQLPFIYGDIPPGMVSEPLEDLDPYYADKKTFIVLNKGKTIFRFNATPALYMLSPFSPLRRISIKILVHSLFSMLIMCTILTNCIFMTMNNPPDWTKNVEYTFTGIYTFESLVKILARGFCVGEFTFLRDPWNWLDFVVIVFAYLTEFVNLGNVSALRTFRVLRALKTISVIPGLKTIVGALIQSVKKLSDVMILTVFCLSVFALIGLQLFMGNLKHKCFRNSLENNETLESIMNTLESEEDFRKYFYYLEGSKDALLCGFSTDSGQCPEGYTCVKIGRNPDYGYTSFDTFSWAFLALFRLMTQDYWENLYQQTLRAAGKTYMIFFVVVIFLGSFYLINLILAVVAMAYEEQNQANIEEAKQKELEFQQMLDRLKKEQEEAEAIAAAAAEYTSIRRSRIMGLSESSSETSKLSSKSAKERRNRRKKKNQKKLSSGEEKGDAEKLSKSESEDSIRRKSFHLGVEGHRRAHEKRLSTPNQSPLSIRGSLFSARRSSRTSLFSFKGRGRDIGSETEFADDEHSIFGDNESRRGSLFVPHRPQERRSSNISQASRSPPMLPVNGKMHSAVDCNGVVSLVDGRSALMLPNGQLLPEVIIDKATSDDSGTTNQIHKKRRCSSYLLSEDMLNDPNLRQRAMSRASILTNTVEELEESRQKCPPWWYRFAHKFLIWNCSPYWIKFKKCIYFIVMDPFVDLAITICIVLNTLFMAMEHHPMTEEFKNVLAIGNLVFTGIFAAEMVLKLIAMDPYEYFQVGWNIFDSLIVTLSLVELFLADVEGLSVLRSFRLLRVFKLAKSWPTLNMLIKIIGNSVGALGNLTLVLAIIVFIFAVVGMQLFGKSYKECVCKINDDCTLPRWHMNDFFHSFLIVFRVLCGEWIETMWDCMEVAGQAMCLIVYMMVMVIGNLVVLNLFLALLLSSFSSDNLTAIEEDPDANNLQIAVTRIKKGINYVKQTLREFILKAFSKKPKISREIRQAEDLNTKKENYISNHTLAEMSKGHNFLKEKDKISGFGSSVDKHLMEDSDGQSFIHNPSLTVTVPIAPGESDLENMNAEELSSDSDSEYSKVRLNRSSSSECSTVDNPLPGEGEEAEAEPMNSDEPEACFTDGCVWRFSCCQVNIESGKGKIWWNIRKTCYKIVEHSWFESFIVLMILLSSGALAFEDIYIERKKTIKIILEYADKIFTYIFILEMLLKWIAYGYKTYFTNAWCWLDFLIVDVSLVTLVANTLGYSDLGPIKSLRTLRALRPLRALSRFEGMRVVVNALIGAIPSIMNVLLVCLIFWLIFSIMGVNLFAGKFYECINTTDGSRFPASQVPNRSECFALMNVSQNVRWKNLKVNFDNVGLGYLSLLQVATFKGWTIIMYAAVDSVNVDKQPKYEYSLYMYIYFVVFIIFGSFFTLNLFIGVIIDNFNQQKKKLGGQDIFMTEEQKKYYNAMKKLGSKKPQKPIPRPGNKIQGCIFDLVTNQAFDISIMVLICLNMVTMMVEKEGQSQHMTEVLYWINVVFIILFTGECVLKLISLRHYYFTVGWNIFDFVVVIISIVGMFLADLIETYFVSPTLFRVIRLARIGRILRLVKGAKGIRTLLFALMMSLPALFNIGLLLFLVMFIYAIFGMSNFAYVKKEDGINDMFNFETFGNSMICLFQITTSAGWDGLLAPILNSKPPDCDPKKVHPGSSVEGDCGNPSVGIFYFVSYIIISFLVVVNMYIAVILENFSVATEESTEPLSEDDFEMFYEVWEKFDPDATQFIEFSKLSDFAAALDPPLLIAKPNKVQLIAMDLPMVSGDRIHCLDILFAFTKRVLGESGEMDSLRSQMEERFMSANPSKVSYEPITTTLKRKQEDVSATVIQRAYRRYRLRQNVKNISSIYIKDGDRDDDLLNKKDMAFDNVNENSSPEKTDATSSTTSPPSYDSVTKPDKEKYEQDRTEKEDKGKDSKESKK

As to `CCc1cccc(C[N+]2(C(CC)C(=O)Nc3c(C)cccc3C)CCCCC2)c1` (centres unmarked) [Compound 20], the IC50 on NaV1.7 [1] lay in the range of 1000 to 3000 nM. On the same count and under the same terms, then `CCC(C(=O)Nc1c(C)cccc1C)[N+]1(Cc2cccc(C#N)c2)CCCCC1` (centres unmarked) [Compound 14], with 300 to 1000 nM; and `CCCN(CCC)C(=O)C1CCC[N+](CC(=O)Nc2c(C)cccc2C)(Cc2ccccc2)C1` (centres unmarked) [Compound 67A], with 1000 to 3000 nM; and `Cc1cccc(C)c1NC(=O)C[N+]1(Cc2ccccc2)CCCCCC1` [Compound 3], with 300 to 1000 nM. On to `CCC(C(=O)Nc1c(C)cccc1C)[N+]1(Cc2cccc(Cl)c2)CCCCC1` (centres unmarked) [Compound 11], for which the IC50 at NaV1.7 [1] is 300 to 1000 nM.

As for `CCC(C(=O)Nc1c(C)cccc1C)[N+]1(Cc2ccccc2)CCCCCC1` (centres unmarked) [Compound 30], on NaV1.7 [1], the IC50 is less than 300 nM. On the same count and under the same terms, for `CCC(C(=O)Nc1c(C)cccc1C)[N+]1(Cc2cccc(OC)c2)CCCCC1` (centres unmarked) [Compound 23] the value was 300 to 1000 nM. Regarding `CCC(C(=O)Nc1c(C)cccc1C)[N+]1(Cc2ccccc2)CCCCCC1.[Br-]` (centres unmarked) [Compound 30A, 1-benzyl-1-(1-((2,6-dimethylphenyl)amino)-1-oxobutan-2-yl) azepan-1-ium bromide], at NaV1.7 [2], the inhibition at 3 µM is greater than 90% and the inhibition at 10 µM is greater than 95%. In addition, in data set [3], the “PAMPA (10^−6 cm/s)” value is on record as “+ (“+” (<0.1 10^−6 cm/s))”.

`CCC(C(=O)Nc1c(C)cccc1C)[N+]1(Cc2cccc(O)c2)CCCCC1` (centres unmarked) [Compound 29]: the IC50 on NaV1.7 [1] is less than 300 nM. Consider `CCC(C(=O)Nc1c(C)cccc1C)[N+]1(Cc2ccccc2C#N)CCCCC1` (centres unmarked) [Compound 15A], for which, on NaV1.7 [2], the inhibition at 10 µM is greater than 95%. Further, the “PAMPA (10^−6 cm/s)” value in data set [3] was “+ (“+” (<0.1 10^−6 cm/s))”. Take `CCC(C(=O)Nc1c(C)cccc1C)[N+]1(Cc2ccc(F)cc2)CCCCC1` (centres unmarked) [Compound 7A]: the inhibition at 10 µM at NaV1.7 [2] fell in the range of 70 to 95%. For the same compound, the “PAMPA (10^−6 cm/s)” value in data set [3] is “+ (“+” (<0.1 10^−6 cm/s))”. The like results for `CCC(C(=O)Nc1c(C)cccc1C)[N+]1(Cc2ccc(C)cc2)CCCCC1` (centres unmarked) [Compound 16A] were, in that order, greater than 95% and “+ (“+” (<0.1 10^−6 cm/s))”. The like results for `CCC(C(=O)Nc1c(C)cccc1C)[N+]1(Cc2cccc(C#N)c2)CCCCC1` (centres unmarked) [Compound 14A] were, in that order, 70 to 95% and “+ (“+” (<0.1 10^−6 cm/s))”. For the compound `CCC(C(=O)Nc1c(C)cccc1C)[N+]1(Cc2ccsc2)CCCCC1` (centres unmarked) [Compound 26A], the inhibition at 10 µM on NaV1.7 [2] was 70 to 95%. Also, the “PAMPA (10^−6 cm/s)” value in data set [3] is “+ (“+” (<0.1 10^−6 cm/s))”. `Cc1cccc(C)c1NC(=O)C[N+]1(Cc2ccccc2)CCCC1.[Br-]` [Compound 5A, 1-benzyl-1-(2-((2,6-dimethylphenyl)amino)-2-oxoethyl) pyrrolidin-1-ium bromide]: on NaV1.7 [2], the inhibition at 3 µM is greater than 90% and the inhibition at 10 µM was 70 to 95%. Moreover, the “PAMPA (10^−6 cm/s)” value in data set [3] is listed as “+ (“+” (<0.1 10^−6 cm/s))”.

For `CCCCNC(=O)C1CCC[N+](CC(=O)Nc2c(C)cccc2C)(Cc2ccccc2)C1.[Br-]` (centres unmarked) [Compound 59A], on NaV1.7 [2], the inhibition at 3 µM is less than 40% and the inhibition at 10 µM lay within 70 to 95%. Moreover, in data set [3], the “PAMPA (10^−6 cm/s)” value is given as “+ (“+” (<0.1 10^−6 cm/s))”. On to `CCC(C(=O)Nc1c(C)cccc1C)[N+]1(Cc2cccc(C)c2)CCCCC1` (centres unmarked) [Compound 17A], for which the inhibition at 10 µM on NaV1.7 [2] was greater than 95%. For the same compound, in data set [3], the “PAMPA (10^−6 cm/s)” value was “+ (“+” (<0.1 10^−6 cm/s))”. For the compound `CCc1cccc(C[N+]2(C(CC)C(=O)Nc3c(C)cccc3C)CCCCC2)c1` (centres unmarked) [Compound 20A], at NaV1.7 [2], the inhibition at 3 µM is greater than 90% and the inhibition at 10 µM is greater than 95%. In addition, the “PAMPA (10^−6 cm/s)” value in data set [3] is given as “+ (“+” (<0.1 10^−6 cm/s))”.

Source of the values: patent US11603355B2, “Charged ion channel blockers and methods for use” (Nocion Therapeutics, Inc., priority 2019, dated 2023).
